Counter-ions that a name gives are not always drawn.

Drawing on US8785436B2, “1,3-oxazines as BACE 1 and/or BACE2 inhibitors” (Hoffmann-La Roche Inc., priority 2011, dated 2014), this text covers IC50 for 19 molecules.

In one experiment the target is T1, BACE1 (Homo sapiens, UniProt P56817).
T1 construct: Human HEK293 cells which are stably transfected with a vector expressing a cDNA of the human APP wt gene (APP695); endogenous in cells; host or cells: HEK293 cells stably expressing human APP695 wt
T1 sequence (P56817 46-501): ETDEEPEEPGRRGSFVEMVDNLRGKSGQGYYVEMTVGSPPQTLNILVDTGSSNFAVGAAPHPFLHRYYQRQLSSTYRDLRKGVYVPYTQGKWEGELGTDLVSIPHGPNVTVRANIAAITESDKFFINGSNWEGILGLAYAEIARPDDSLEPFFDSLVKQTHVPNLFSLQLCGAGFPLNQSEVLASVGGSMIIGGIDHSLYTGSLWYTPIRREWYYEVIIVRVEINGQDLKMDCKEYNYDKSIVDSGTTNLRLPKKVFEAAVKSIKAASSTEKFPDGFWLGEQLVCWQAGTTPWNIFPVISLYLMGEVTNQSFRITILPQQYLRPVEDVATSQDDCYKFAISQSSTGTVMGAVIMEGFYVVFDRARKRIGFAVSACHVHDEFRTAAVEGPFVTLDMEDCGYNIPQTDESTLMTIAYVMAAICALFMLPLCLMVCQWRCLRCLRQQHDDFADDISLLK
In words: Cellular Aβ-lowering assay b) (Abeta 40 AlphaLISA, HEK293 APP cells). The class given is cell-based. The settings on record: 18-20 hrs incubation, read-out: BACE1 cell act. Aβ40 IC50. On the procedure: Cellular Aβ-Lowering Assay:
b) Alternatively, the Abeta 40 AlphaLISA Assay can be used. The HEK293 APP cells were seeded in 96 well Microtiter plates in cell culture medium (Iscove's, plus 10% (v/v) fetal bovine serum, penicillin/streptomycin) to about 80% confluency and the compounds were added at a 3× concentration in 1/3 volume of culture medium (final DMSO concentration was kept at 1% v/v). After 18-20 hrs incubation at 37° C. and 5% CO2 in a humidified incubator, the culture supernatants were harvested for the determination of Aβ 40 concentrations using Perkin-Elmer Human Amyloid beta 1-40 (high specificity) Kit (Cat# AL275C).
In a Perkin-Elmer White Optiplate-384 (Cat#6007290), 2 ul culture supernatants were combined with 2 μl of a 10× AlphaLISA Anti-hAβ Acceptor beads+Biotinylated Antibody Anti-Aβ 1-40 Mix (50 μg/mL/5 nM). After 1 hour room temperature incubation, 16 μl of a 1.25× preparation of Streptavidin (SA) Donor beads (25 μg/mL) were added and incubated for 30 minutes in the Dark. Light Emission at 615 nm was then recorded using EnVision-Alpha Reader. Levels of Aβ 40 in the culture supernatants were calculated as percentage of maximum signal (cells treated with 1% DMSO without inhibitor). The IC50 values were calculated using the Excel XLfit software.
In general terms: Alpha assays give light when donor and acceptor beads are brought close together.
By IC50 is commonly meant the midpoint of a concentration-inhibition curve. As for `CC1(C)OC(N)=N[C@](C)(c2cc(NC3CCC(c4ccccc4)C3)ccc2F)C1(F)F` (mixture of isomers) [Example 49, (R)-5,5-Difluoro-4-[2-fluoro-5-((1RS,3RS)-3-phenyl-cyclopentylamino)-phenyl]-4,6,6-trimethyl-5,6-dihydro-4H-[1,3]oxazin-2-ylamine], the IC50 is 1.21 µM.

For the molecule `C[C@]1(c2cccc(OCC3CC3(F)F)c2)N=C(N)OCC1(F)F` (mixture of isomers) [Example 57, (R)-4-[5-((RS)-2,2-Difluoro-cyclopropylmethoxy)-phenyl]-5,5-difluoro-4-methyl-5,6-dihydro-4H-[1,3]oxazin-2-ylamine], the IC50 amounted to 3.7 µM. In the case of `C[C@]1(C2CC2C(=O)Nc2cccc3cc(Cl)cnc23)N=C(N)OCC1(F)F` (stereo in doubt) [Example 62, (1S,2S)-rel-2-((R)-2-Amino-5,5-difluoro-4-methyl-5,6-dihydro-4H-[1,3]oxazin-4-yl)-cyclopropanecarboxylic acid(3-chloro-quinolin-8-yl)-amide], the IC50 amounted to 0.42 µM. Consider `C[C@]1(c2cc(-c3nc4ccc(Cl)cc4o3)c(F)cc2F)N=C(N)OCC1(F)F` [Example 15, (R)-4-[5-(6-Chloro-benzooxazol-2-yl)-2,4-difluoro-phenyl]-5,5-difluoro-4-methyl-5,6-dihydro-4H-[1,3]oxazin-2-ylamine Hydrochloride], for which the 50% inhibitory concentration (IC50) was found to be 1.28 µM.

For `C[C@]1(c2cc(-c3cncc(Cl)c3)c(F)cc2F)N=C(N)OCC1(F)F` [Example 32, (R)-4-[5-(5-Chloro-pyridin-3-yl)-2,4-difluoro-phenyl]-5,5-difluoro-4-methyl-5,6-dihydro-4H-[1,3]oxazin-2-ylamine], the concentration for half-maximal inhibition (IC50) was 0.88 µM. The same measure, in the same setting: under `C[C@]1(c2cc(-c3cncnc3)c(F)cc2F)N=C(N)OCC1(F)F` [Example 33, (R)-4-(2,4-Difluoro-5-pyrimidin-5-yl-phenyl)-5,5-difluoro-4-methyl-5,6-dihydro-4H-[1,3]oxazin-2-ylamine] stands 0.38 µM; under `CC1(C)OC(N)=N[C@](C)(c2cc(Nc3cccc(C(F)(F)F)n3)ccc2F)C1(F)F` [Example 47, (R)-5,5-Difluoro-4-[2-fluoro-5-(6-trifluoromethyl-pyridin-2-ylamino)-phenyl]-4,6,6-trimethyl-5,6-dihydro-4H-[1,3]oxazin-2-ylamine], 4.17 µM.

`CC1(C)OC(N)=N[C@](C)(c2cc(-c3cc(C#N)ccc3Cl)ccc2F)C1(F)F` [Example 52, 3′-((R)-2-Amino-5,5-difluoro-4,6,6-trimethyl-5,6-dihydro-4H-[1,3]oxazin-4-yl)-6-chloro-4′-fluoro-biphenyl-3-carbonitrile]: the IC50 was 2.88 µM. With `NC1=NC(c2cc(-c3cncc(Cl)c3)ccc2F)(C(F)F)CCO1` (stereo not drawn) [Example 53, 4-[5-(5-Chloro-pyridin-3-yl)-2-fluoro-phenyl]-4-difluoromethyl-5,6-dihydro-4H-[1,3]oxazin-2-ylamine], the IC50 came to 0.502 µM.

As to `NC1=N[C@@](c2cc(-c3cncc(Cl)c3)ccc2F)(C(F)F)CCO1` [Example 54B, (S)-4-[5-(5-Chloro-pyridin-3-yl)-2-fluoro-phenyl]-4-difluoromethyl-5,6-dihydro-4H-[1,3]oxazin-2-ylamine], the IC50 was 0.22 µM. Take `CCc1ccc(Cc2nc3ccc([C@@]4(C)N=C(N)OCC4(F)F)cc3[nH]2)cc1` [Example 55, (R)-4-[2-(4-Ethyl-benzyl)-3H-benzoimidazol-5-yl]-5,5-difluoro-4-methyl-5,6-dihydro-4H-[1,3]oxazin-2-ylamine]: the concentration for half-maximal inhibition (IC50) is 1.45 µM.

As to `C[C@]1(c2cc(NCc3cc(F)cc(F)c3)ccc2F)N=C(N)OC[C@@H]1F` [Example 56, (4R,5R)-4-[5-(3,5-Difluoro-benzylamino)-2-fluoro-phenyl]-5-fluoro-4-methyl-5,6-dihydro-4H-[1,3]oxazin-2-ylamine], the IC50 was 0.8 µM. For the molecule `C[C@]1(c2cccc(OCCC(F)(F)F)c2)N=C(N)OCC1(F)F` [Example 58, (R)-5,5-Difluoro-4-methyl-4-[3-(3,3,3-trifluoro-propoxy)-phenyl]-5,6-dihydro-4H-[1,3]oxazin-2-ylamine], the IC50 was 2.01 µM. Regarding `C[C@]1(c2cccc(OCC3CC3)c2)N=C(N)OCC1(F)F` [Example 59, (R)-4-(3-Cyclopropylmethoxy-phenyl)-5,5-difluoro-4-methyl-5,6-dihydro-4H-[1,3]oxazin-2-ylamine], the half-maximal inhibitory concentration (IC50) was 3.12 µM. In the case of `C[C@]1(c2cnn(-c3cccc(C#N)c3)c2)N=C(N)OCC1(F)F` [Example 60, 3-[4-((R)-2-Amino-5,5-difluoro-4-methyl-5,6-dihydro-4H-[1,3]oxazin-4-yl)-pyrazol-1-yl]-benzonitrile], the IC50 came out at 4.62 µM.

On to `C#Cc1cccc(-n2cc([C@@]3(C)N=C(N)OCC3(F)F)cn2)c1` [Example 61, (R)-4-[1-(3-Ethynyl-phenyl)-1H-pyrazol-4-yl]-5,5-difluoro-4-methyl-5,6-dihydro-4H-[1,3]oxazin-2-ylamine], for which the IC50 amounted to 0.72 µM.

Take `C[C@]1([C@@H]2C[C@H]2C(=O)Nc2cccc3cc(Cl)cnc23)N=C(N)OCC1(F)F` [Example 63, (1R,2R)-((R)-2-Amino-5,5-difluoro-4-methyl-5,6-dihydro-4H-[1,3]oxazin-4-yl)-cyclopropanecarboxylic acid(3-chloro-quinolin-8-yl)-amide]: the IC50 amounted to 0.36 µM.

`C[C@]1([C@@H]2C[C@H]2C(=O)Nc2csc3cc(C#N)cnc23)N=C(N)OCC1(F)F` [Example 65, (1R,2R)-2-((R)-2-Amino-5,5-difluoro-4-methyl-5,6-dihydro-4H-[1,3]oxazin-4-yl)-cyclopropanecarboxylic acid(6-cyano-thieno[3,2-b]pyridin-3-yl)-amide]: the half-maximal inhibitory concentration (IC50) was 0.18 µM. `C[C@]1(c2cnn(-c3cccc(Br)c3)c2)N=C(N)OCC1(F)F` [Intermediate K7.1, (R)-4-[1-(3-bromo-phenyl)-1H-pyrazol-4-yl]-5,5-difluoro-4-methyl-5,6-dihydro-4H-[1,3]oxazin-2-ylamine]: the half-maximal inhibitory concentration (IC50) turned out to be 1.44 µM.

The target of a further experiment is T2, BACE2 (Rattus norvegicus, UniProt Q6IE75).
T2 construct: endogenous cellular BACE2 in the Ins1e rat cell line; endogenous in cells; host or cells: INS-TMEM27 (INS1e-derived rat cell line with TetOn-inducible full-length hTMEM27)
T2 sequence (Q6IE75 63-514): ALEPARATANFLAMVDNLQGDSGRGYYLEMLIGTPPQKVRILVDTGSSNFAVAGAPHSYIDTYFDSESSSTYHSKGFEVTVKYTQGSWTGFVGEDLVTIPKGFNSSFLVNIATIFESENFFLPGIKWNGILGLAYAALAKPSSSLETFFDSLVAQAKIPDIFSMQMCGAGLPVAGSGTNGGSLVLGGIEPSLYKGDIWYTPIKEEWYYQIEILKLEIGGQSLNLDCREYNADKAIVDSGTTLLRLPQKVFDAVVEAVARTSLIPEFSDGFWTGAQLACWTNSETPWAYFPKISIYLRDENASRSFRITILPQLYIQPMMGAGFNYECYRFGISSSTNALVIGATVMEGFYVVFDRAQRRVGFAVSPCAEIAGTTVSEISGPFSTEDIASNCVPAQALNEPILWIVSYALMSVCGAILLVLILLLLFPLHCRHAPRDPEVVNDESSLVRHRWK
In words: BACE inhibition by measuring cellular TMEM27 cleavage (INS-TMEM27 cells, ELISA). The class given is cell-based. To be noted: INS-TMEM27 (Ins1e rat) cells, shed human TMEM27 by ELISA; read-out: BACE2 cell act. IC50. An excerpt:
Assay for BACE Inhibition by Measuring Cellular TMEM27 Cleavage:
The assay uses the principle of inhibition of human TMEM27 cleavage by endogenous cellular BACE2 in the Ins1e rat cell line and shedding from the cell surface into the culture medium, followed by detection in an ELISA assay Inhibition of BACE2 prevents the cleavage and shedding in a dose-dependent manner.
The stable cell line “INS-TMEM27” represents an INS1e-derived cell line with inducible expression (using the TetOn system) of full-length hTMEM27 in a doxycycline-dependent manner. The cells are cultured throughout the experiment in RPMI1640+Glutamax (Invitrogen) Penicillin/Streptomycin, 10% Fetal bovine serum, […], […], 100 micrograms/ml G418 and 100 microgram/ml hygromycin and are grown inadherent culture at 37° C. in a standard CO2 cell culture incubator.
INS-TMEM27 cells are seeded in 96-well plates. After 2 days in culture, BACE2 inhibitor is added in a range of concentrations as required by the assay and after a further two hours, doxycycline is added to a final concentration of 500 ng/ml. The cells are incubated for a further 46 hours and the supernatant harvested for detection of shed TMEM27.
An ELISA assay (using a pair of mouse anti-human-TMEM27 antibodies, raised against the extracellular domain of TMEM27) is used for detection of TMEM27 in the culture medium. An EC50 for BACE2 inhibition is calculated using the ELISA readout for each inhibitor concentration with standard curve-fitting software such as XLFit for the Excel spreadsheet program.
A general note: In an ELISA, binding on a coated surface is turned into a signal by an enzyme label.
`CC1(C)OC(N)=N[C@](C)(c2cc(Nc3cccc(C(F)(F)F)n3)ccc2F)C1(F)F` [Example 47, (R)-5,5-Difluoro-4-[2-fluoro-5-(6-trifluoromethyl-pyridin-2-ylamino)-phenyl]-4,6,6-trimethyl-5,6-dihydro-4H-[1,3]oxazin-2-ylamine]: the half-maximal inhibitory concentration (IC50) turned out to be 2.75 µM. The same measure, in the same setting: under `C[C@]1([C@@H]2C[C@H]2C(=O)Nc2cccc3cc(Cl)cnc23)N=C(N)OCC1(F)F` [Example 63, (1R,2R)-((R)-2-Amino-5,5-difluoro-4-methyl-5,6-dihydro-4H-[1,3]oxazin-4-yl)-cyclopropanecarboxylic acid(3-chloro-quinolin-8-yl)-amide] stands 1.35 µM.
